Assays:
[1] = test system: dengue virus type 1; assay: Antiviral activity against Dengue virus 1 infected in syrian hamster BHK-21 cells assessed as inhibition of plaque formation pretreated with compound for 45 mins followed by viral infection for 24 hrs; assay type: functional; conditions: BHK-21, 24.75 h, time 1485 min
[2] = test system: dengue virus type 2; assay: Antiviral activity against Dengue virus 2 infected in syrian hamster BHK-21 cells assessed as inhibition of plaque formation pretreated with compound for 45 mins followed by viral infection for 24 hrs; assay type: functional; conditions: BHK-21, 24.75 h, time 1485 min
[3] = test system: Kunjin virus; assay: Antiviral activity against Kunjin virus; assay type: functional, organism-based; conditions: West Nile virus
[4] = test system: dengue virus type 3; assay: Antiviral activity against Dengue virus 3 infected in syrian hamster BHK-21 cells assessed as inhibition of plaque formation pretreated with compound for 45 mins followed by viral infection for 24 hrs; assay type: functional; conditions: BHK-21, 24.75 h, time 1485 min
[5] = Cytotoxicity against mouse BaF3 cells expressing BCR-ABL assessed as cell viability; assay type: toxicity, cell-based
[6] = test system: dengue virus type 4; assay: Antiviral activity against Dengue virus 4 infected in syrian hamster BHK-21 cells assessed as inhibition of plaque formation pretreated with compound for 45 mins followed by viral infection for 24 hrs; assay type: functional; conditions: BHK-21, 24.75 h, time 1485 min

NC(=O)c1cccc(-c2cc(Nc3ccc(OC(F)(F)F)cc3)ncn2)c1
IC90 [1]: 20 µM | IC90 [2]: 20 µM | EC50 [3]: > 20 µM | IC90 [4]: 20 µM | IC50 [5]: > 10 µM | IC90 [6]: 20 µM
